Patent US10669276B2, “Fused pyrimidine derivatives” (Hoffmann-La Roche Inc., priority 2016, dated 2020)
pEC50: −log10 of the molar value.

Target: γ-secretase (Homo sapiens (Human), UniProt P49768)
Assay: Cellular γ-secretase assay (Aβ42 secretion, AlphaLisa)
Format: cell-based
Conditions: inhibition of Aβ42 secretion; human neuroglioma H4 cells overexpressing human APP695 Swedish double mutation; 24 hr compound incubation
Protocol: Human neuroglioma H4 cells overexpressing human APP695 with the Swedish double mutation (K595N/M596L) were plated at 30,000 cells/well/100 μl in 96-well plates in IMDM media containing 10% FCS, 0.2 mg/l Hygromycin B and incubated at 37° C., 5% CO2.
3-4 hr post plating, compounds are a diluted in media and 50 μl is added as […] concentrate to achieve the final concentration. Compound incubation is performed for 24 hr. Final doses typically range from 4 μM down to 0.0013 μM in half-log steps resulting in an eight point dose response curve. Appropriate controls using vehicle only and reference compound were applied to this assay. The final concentration of Me2SO was 0.4%.
After incubation at 37° C., 5% CO2, the supernatant was subjected to quantification of secreted Aβ42 by the means of an AlphaLisa assay kit (Human Amyloid beta 1-42 Kit: Cat # AL203C, Perkin Elmer). 20 μl of the cell culture supernatant was transferred to an assay plate. Then 10 μl of a mixture of the AlphaLisa coupled capture antibody and the biotinylated detection antibody was added and incubated for 3 hours at room temperature while softly shaking the assay plate. After a further addition of 20 μl of the Donor beads the assay plate was incubated for 30 min at room temperature and constant shaking without exposure to direct light. The assay plate was then read on a Paradigm AlphaLisa Reader using the build-in program with excitation at 680 nm and emission at […]. The measured signals were then used to calculate IC50 values for inhibition of Aβ42 secretion by nonlinear regression fit analysis using XLfit 5.3 software (IDBS).

| pEC50 | SMILES |
| --- | --- |
| 7.29 | CNc1nc(Nc2ccc(-n3cnc(C)n3)cc2)nc2c1C(C)(C)CN2c1ccc(F)cc1 [Example 10, 7-(4-Fluorophenyl)-N4,5,5-trimethyl-N2-(4-(3-methyl-1H-1,2,4-triazol-1-yl)phenyl)-6,7-dihydro-5H-pyrrolo[2,3-d]pyrimidine-2,4-diamine] |
| 8.00 | CNc1nc(Nc2ccc(-n3cnc(C)n3)c(OC)c2)nc2c1CCN2c1ccc(F)cc1 [Example 32, 7-(4-Fluorophenyl)-N2-(3-methoxy-4-(3-methyl-1H-1,2,4-triazol-1-yl)phenyl)-N4-methyl-6,7-dihydro-5H-pyrrolo[2,3-d]pyrimidine-2,4-diamine] |
| 8.15 | CNc1nc(Nc2ccc(-n3cnc(C)c3)c(F)c2)nc2c1[C@@H](C)CN2c1ccc(F)cc1 (single isomer, unassigned) [Example 46q, (R)— or (S)—N2-(3-Fluoro-4-(4-methyl-1H-imidazol-1-yl)phenyl)-7-(4-fluorophenyl)-N4,5-dimethyl-6,7-dihydro-5H-pyrrolo[2,3-d]pyrimidine-2,4-diamine] |
| 8.22 | CNc1nc(Nc2cnc(-n3cnc(C)c3)c(OC)c2)nc2c1CCN2c1ccc(F)cc1 [Example 33, 7-(4-Fluorophenyl)-N2-(5-methoxy-6-(4-methyl-1H-imidazol-1-yl)pyridin-3-yl)-N4-methyl-6,7-dihydro-5H-pyrrolo[2,3-d]pyrimidine-2,4-diamine] |
| 8.10 | CNc1nc(Nc2cnc(-n3cnc(C)c3)c(OC)c2)nc2c1C(C)(C)CN2c1ccc(F)cc1F [Example 20, 7-(2,4-Difluorophenyl)-N2-(5-methoxy-6-(4-methyl-1H-imidazol-1-yl)pyridin-3-yl)-N4,5,5-trimethyl-6,7-dihydro-5H-pyrrolo[2,3-d]pyrimidine-2,4-diamine] |
| 8.22 | CNc1nc(Nc2cnc(-n3cnc(C)c3)c(OC)c2)nc2c1C(C)CN2c1ccc(F)cc1 (centres unmarked) [Example 40, 7-(4-Fluorophenyl)-N2-(5-methoxy-6-(4-methyl-1H-imidazol-1-yl)pyridin-3-yl)-N4,5-dimethyl-6,7-dihydro-5H-pyrrolo[2,3-d]pyrimidine-2,4-diamine] |
| 8.10 | CNc1nc(Nc2ccc(-n3cnc(C)c3)c(F)c2)nc2c1C(C)(C)CCN2c1ccc(F)cc1 [Example 37, N2-(3-Fluoro-4-(4-methyl-1H-imidazol-1-yl)phenyl)-8-(4-fluorophenyl)-N4,5,5-trimethyl-5,6,7,8-tetrahydropyrido[2,3-d]pyrimidine-2,4-diamine] |
| 8.10 | CNc1nc(Nc2cnc(-n3cnc(Cl)c3)c(OC)c2)nc2c1C(C)(C)CN2c1ccc(F)cc1F [Example 23, N2-(6-(4-Chloro-1H-imidazol-1-yl)-5-methoxypyridin-3-yl)-7-(2,4-difluorophenyl)-N4,5,5-trimethyl-6,7-dihydro-5H-pyrrolo[2,3-d]pyrimidine-2,4-diamine] |
| 8.30 | CNc1nc(Nc2cnc(-n3cnc(C)c3)c(OC)c2)nc2c1C(C)(C)CN2c1cccc(F)c1F [Example 44, 7-(2,3-Difluorophenyl)-N2-(5-methoxy-6-(4-methyl-1H-imidazol-1-yl)pyridin-3-yl)-N4,5,5-trimethyl-6,7-dihydro-5H-pyrrolo[2,3-d]pyrimidine-2,4-diamine] |
| 8.10 | CNc1nc(Nc2ccc(-n3cnc(C)c3)c(F)c2)nc2c1C(C)(C)CN2c1ccc(F)cc1 [Example 34, N2-(3-Fluoro-4-(4-methyl-1H-imidazol-1-yl)phenyl)-7-(4-fluorophenyl)-N4,5,5-trimethyl-6,7-dihydro-5H-pyrrolo[2,3-d]pyrimidine-2,4-diamine] |
| 8.10 | CNc1nc(Nc2cnc(-n3cnc(C)c3)c(F)c2)nc2c1C(C)(C)CN2c1ccc(F)cc1 [Example 25, N2-(5-Fluoro-6-(4-methyl-1H-imidazol-1-yl)pyridin-3-yl)-7-(4-fluorophenyl)-N4,5,5-trimethyl-6,7-dihydro-5H-pyrrolo[2,3-d]pyrimidine-2,4-diamine] |
